Reference: patent EP3250188B1, “PHARMACEUTICAL COMPOSITION COMPRISING APREPITANT AND METHOD FOR THE PREPARATION THEREOF” (Pharmathen S.A., priority 2015, dated 2016)
Values after ≈ are worked out from the molar mass of the structure shown. Read-outs that look alike come from different tables or passages of the source.

Assays:
[1] = Solubility study in FeSSIF (HPLC after 30 min stirring and centrifugation); assay type: physicochemical
Protocol: For the solubility study, a quantity of the solid dispersion equivalent to 10.0 mg of Aprepitant was dissolved in a 100ml volumetric flask with dissolution medium of fed state simulated intestinal fluid (FeSSIF) to a concentration of 0.1mg/ml. The solution was magnetically stirred for 30min and before injected in the HPLC it was centrifuged at 4000rpm for 5min. Finally the drug concentration was equated to the drug solubility. Table 1: Solubility of solid dispersion prepared according to example 1
Table 8: Solubilities of solid dispersions prepared by melt mixing

[2] = Dissolution, USP type II apparatus (paddles), 50 rpm, FeSSIF; assay type: physicochemical
Protocol: The rate and extent of drug dissolution was studied using a USP type II apparatus (paddles) at 50 rpm. The dissolution medium was a FeSSIF with pH 5.0. Table 2: Dissolution results of amorphous solid dispersions for different ratios of API to polymer compared with that of Aprepitant alone. The dissolution rate of the solid dispersions that present the best solubility was studied in USP II apparatus, 50rpm, FeSSIF medium.

[3] = cited from earlier work

solubility at 30 min ([1]; fed state simulated intestinal fluid (FeSSIF), fessif, thermodynamic from solid, solid dispersions prepared by spray drying, nominal concentration 0.1mg/ml, stirred 30min): 50 µg/mL (≈ 93.6 µM)
Solubility in FeSSIF ([1]; solid dispersions prepared by melt mixing at the stated temperature): 50 µg/mL (≈ 93.6 µM)
% release ([2]; 15 min, FeSSIF medium, melt mixed solid dispersions): 17,37%
% release ([2]; 15 min, FeSSIF pH 5.0, spray dried solid dispersions): 17,37%
% release ([2]; 30 min, FeSSIF medium, melt mixed solid dispersions): 38,74%
% release ([2]; 30 min, FeSSIF pH 5.0, spray dried solid dispersions): 38,74%
% release ([2]; 45 min, FeSSIF medium, melt mixed solid dispersions): 45,34%
% release ([2]; 45 min, FeSSIF pH 5.0, spray dried solid dispersions): 45,34%
% release ([2]; 60 min, FeSSIF medium, melt mixed solid dispersions): 47,38%
% release ([2]; 60 min, FeSSIF pH 5.0, spray dried solid dispersions): 47,38%
SMILES: C[C@@H](O[C@H]1OCCN(Cc2nc(=O)[nH][nH]2)[C@H]1c1ccc(F)cc1)c1cc(C(F)(F)F)cc(C(F)(F)F)c1 [Aprepitant]
solubility ([3]; in acetonitrile): slightly soluble
solubility ([3]; in ethanol): sparingly soluble
solubility ([3]; in isopropyl acetate): sparingly soluble
solubility ([3]; in water): practically insoluble
